Assay results taken from patent publication US10941137B2, “Difluoromethyl-phenyl triazoles” (Boehringer Ingelheim International GmbH, priority 2018, dated 2021).

Legend:
[1] = Metabolic stability in human liver microsomes (Human MST); format: in vitro ADME; conditions: pooled human liver microsomes, pH 7.6; human liver microsomes 1 mg/mL, 1 μM compound, NADPH 1 mM, 37° C.; read-out: Human MST t1/2
Method: Assessment of Metabolic Stability in Human Liver Microsomes (Human MST) The metabolic stability of the compounds according to the invention may be investigated as follows: The metabolic degradation of the test compound is assayed at 37° C. with pooled human liver microsomes. The final incubation volume of 100 μL per time point contains TRIS buffer pH 7.6 at room temperature (0.1 M), MgCl2 (5 mM), microsomal protein (1 mg/mL) and the test compound at a final concentration of 1 μM. Following a short pre-incubation period at 37° C., the reactions are initiated by addition of beta-nicotinamide adenine dinucleotide phosphate, reduced form (NADPH, 1 mM), and terminated by transferring an aliquot into solvent after different time points. After centrifugation (10000 g, 5 min), an aliquot of the supernatant is assayed by LCMS/MS for the amount of parent compound. The half-life (t½) is determined by the slope of the semi-logarithmic plot of the concentration-time profile.

[2] = target: T1, α5β2γ2 GABAA receptor (Homo sapiens, UniProt P18507+P31644); assay: Assay B: modulation of α5β2γ2 GABAA receptor, two-electrode voltage clamp in oocytes; format: cell-based; conditions: for EC50: oocytes, TEVC, co-application with GABA 0.5 μM (EC5-20), read-out: Assay B: GABAA α5β3γ2 EC50
T1 sequence (P31644 32-462): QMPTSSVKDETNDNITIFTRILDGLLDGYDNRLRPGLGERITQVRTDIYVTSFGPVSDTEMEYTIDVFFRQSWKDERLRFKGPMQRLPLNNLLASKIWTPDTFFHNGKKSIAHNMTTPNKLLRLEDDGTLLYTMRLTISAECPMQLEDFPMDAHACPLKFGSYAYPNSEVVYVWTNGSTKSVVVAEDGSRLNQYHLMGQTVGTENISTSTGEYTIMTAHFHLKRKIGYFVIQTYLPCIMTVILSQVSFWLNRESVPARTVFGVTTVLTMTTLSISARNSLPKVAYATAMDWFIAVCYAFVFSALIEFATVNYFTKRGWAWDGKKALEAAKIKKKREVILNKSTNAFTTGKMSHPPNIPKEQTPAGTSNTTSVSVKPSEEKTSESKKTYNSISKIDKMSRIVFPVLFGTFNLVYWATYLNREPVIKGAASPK
T1 sequence (P18507 40-376 limits assumed): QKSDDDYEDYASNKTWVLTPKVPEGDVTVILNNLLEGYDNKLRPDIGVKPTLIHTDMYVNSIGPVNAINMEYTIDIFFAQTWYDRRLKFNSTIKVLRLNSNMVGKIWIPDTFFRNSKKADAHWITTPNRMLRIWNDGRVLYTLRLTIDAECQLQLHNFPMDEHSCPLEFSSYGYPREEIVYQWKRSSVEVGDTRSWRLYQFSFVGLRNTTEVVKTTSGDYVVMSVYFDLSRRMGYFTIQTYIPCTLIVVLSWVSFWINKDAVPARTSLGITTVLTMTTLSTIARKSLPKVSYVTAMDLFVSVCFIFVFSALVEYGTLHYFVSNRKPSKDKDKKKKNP
Method: Assay B: In vitro evaluation of modulation of α5β2γ2 GABAA receptor.
Modulatory efficacy of compounds of formula (I) is determined electrophysiological recordings in oocytes using the two-electrode voltage clamp (TEVC) technique. Oocytes are injected with cRNA for human GABAA receptor subunits α5, β2 and γ2 in a 3:1:3 ratio and modulatory efficacy is evaluated by co-applications with a submaximal EC5-20 GABA concentration (0.5 μM) termed GABA control. As a standard, the compounds are tested in five concentrations (3.16, 0.316, 0.0316, 0.00316 and 0.000316 μM) on each oocyte starting with the lowest concentration. Background subtracted peak current amplitudes are normalized to the respective GABA control current, converted to % change and depicted +/−S.E.M. as a function of increasing compound concentrations. Plotted datapoints are fitted to the empirical Hill equation using non-linear regression. 95% confidence intervals for maximal efficacy (Bottom) and potency (Log EC50) are derived from this fitting routine.

| Structure (SMILES) | half-life at 1 μM [1] | Assay B: GABAA α5β3γ2 Emax vs GABA [2] | EC50 [2] |
| --- | --- | --- | --- |
| Cc1nnn(-c2ccc(C(F)F)cc2)c1COc1ccc(-n2cc(C(F)(F)F)cn2)nn1 [Example 25] | > 2.17 h | -0.7% |  |
| COC(=O)c1cn(-c2ccc(OCc3c(C)nnn3-c3ccc(C(F)F)cc3)nn2)cn1 [Example 29] | 0.433 h | -29% | 1.8 nM |
| Cc1nnn(-c2ccc(C(F)F)cc2)c1COc1ccc(-n2ccc(C(N)=O)n2)nn1 [Example 21] | 0.617 h | 2% |  |
| Cc1nnn(-c2ccc(C(F)F)cc2)c1COc1ccc(-n2cc3c(n2)CCNC3=O)nn1 [Example 26] | > 2.17 h | -27% | 3.4 nM |
| Cc1nnn(-c2ccc(C(F)F)cc2)c1COc1ccc(-n2cnc(C=O)c2)nn1 [Example 17] | 0.167 h | -23% | 1.7 nM |
| Cc1nnn(-c2ccc(C(F)F)cc2)c1COc1ccc(-n2cnc(S(C)(=O)=O)c2)nn1 [Example 19] | > 2.17 h | -25% | 7.7 nM |
| Cc1nnn(-c2ccc(C(F)F)cc2)c1COc1ccc(-n2cnc(C[N+](C)(C)C)c2)nn1.O=C([O-])C(F)(F)F [Example 36, ({1-[6-({1-[4-(difluoromethyl)phenyl]-4-methyl-1H-1,2,3-triazol-5-yl}methoxy)pyridazin-3-yl]-1H-imidazol-4-yl}methyl)trimethylazanium trifluoroacetate] | > 2.17 h | -31.5% | 6.2 nM |
| Cc1cc(-c2ccc(OCc3c(C)nnn3-c3ccc(C(F)F)cc3)nn2)cnn1 [Example 11] | > 2.17 h | -17.6% | 10.3 nM |
| Cc1nnn(-c2ccc(C(F)F)cc2)c1COc1ccc(-n2cc(C#N)cn2)nn1 [Example 31] | > 2.17 h | -23% | 7.4 nM |
| Cc1nnn(-c2ccc(C(F)F)cc2)c1COc1ccc(-c2cnc(OCC(C)(C)O)nc2)nn1 [Example 4] | > 2.17 h | -41.5% | 22.8 nM |
| Cc1nnn(-c2ccc(C(F)F)cc2)c1COc1ccc(-c2ccnc(O)c2)nn1 [Example 2, 4-[6-({1-[4-(difluoromethyl)phenyl]-4-methyl-1H-1,2,3-triazol-5-yl}methoxy)pyridazin-3-yl]pyridin-2-ol] | > 2.17 h | -57% | 6 nM |
| Cc1nnn(-c2ccc(C(F)F)cc2)c1COc1ccc(-n2ccc(C(F)(F)F)n2)nn1 [Example 24] | 0.517 h | -9% | 76.9 nM |
| Cc1nnn(-c2ccc(C(F)F)cc2)c1COc1ccc(-c2cnn(C3CC3)c2)nn1 [Example 9] | > 2.17 h | -12% | 47.5 nM |
| Cc1nnn(-c2ccc(C(F)F)cc2)c1COc1ccc(-n2cnc(C(F)F)c2)nn1 [Example 15] | > 2.17 h | -42.5% | 1.4 nM |
| CC(=O)c1cn(-c2ccc(OCc3c(C)nnn3-c3ccc(C(F)F)cc3)nn2)cn1 [Example 32] | > 2.17 h | -22.8% | 5.7 nM |
| CNC(=O)c1cn(-c2ccc(OCc3c(C)nnn3-c3ccc(C(F)F)cc3)nn2)cn1 [Example 14] | > 2.17 h | -47.3% | 2.3 nM |

| Structure (SMILES) | half-life at 1 μM [1] | Assay B: GABAA α5β3γ2 Emax vs GABA [2] | EC50 [2] |
| --- | --- | --- | --- |
| Cc1ncc(-c2ccc(OCc3c(C)nnn3-c3ccc(C(F)F)cc3)nn2)o1 [Example 6] | > 2.17 h | -33.3% | 6.9 nM |
| Cc1nnn(-c2ccc(C(F)F)cc2)c1COc1ccc(-n2cnc(Cl)c2)nn1 [Example 18] | > 2.17 h | -27.5% | 3.7 nM |
| Cc1nnn(-c2ccc(C(F)F)cc2)c1COc1ccc(-n2cnc(C(C)O)c2)nn1 (stereo not shown) [Example 40] | > 2.17 h | -17% | 1.9 nM |
| Cc1n[nH]c(C)c1-c1ccc(OCc2c(C)nnn2-c2ccc(C(F)F)cc2)nn1 [Example 12, 3-({1-[4-(difluoromethyl)phenyl]-4-methyl-1H-1,2,3-triazol-5-yl}methoxy)-6-(3,5-dimethyl-1H-pyrazol-4-yl)pyridazine] | 0.417 h | -26% | 13 nM |
| Cc1nnn(-c2ccc(C(F)F)cc2)c1COc1ccc(-n2cnc(C(C)(C)O)c2)nn1 [Example 39, 2-{1-[6-({1-[4-(difluoromethyl)phenyl]-4-methyl-1H-1,2,3-triazol-5-yl}methoxy)pyridazin-3-yl]-1H-imidazol-4-yl}propan-2-ol] | > 2.17 h | -17.3% | 1.8 nM |
| Cc1nnn(-c2ccc(C(F)F)cc2)c1COc1ccc(-n2ccc(C#N)n2)nn1 [Example 20] |  | -19.7% | 4.4 nM |
| Cc1nnn(-c2ccc(C(F)F)cc2)c1COc1ccc(-n2cnc(C(=O)O)c2)nn1 [Example 37, 1-[6-({1-[4-(difluoromethyl)phenyl]-4-methyl-1H-1,2,3-triazol-5-yl}methoxy)pyridazin-3-yl]-1H-imidazole-4-carboxylic acid] | > 2.17 h | -28.2% | 4.7 nM |
| CCn1cc(-c2ccc(OCc3c(C)nnn3-c3ccc(C(F)F)cc3)nn2)cn1 [Example 7] |  | -32% | 6 nM |
| Cc1nnn(-c2ccc(C(F)F)cc2)c1COc1ccc(-n2cnc(CN)c2)nn1 [Example 35, {1-[6-({1-[4-(difluoromethyl)phenyl]-4-methyl-1H-1,2,3-triazol-5-yl}methoxy)pyridazin-3-yl]-1H-imidazol-4-yl}methanamine] | > 2.17 h | -21.7% | 2.1 nM |
| Cc1nnn(-c2ccc(C(F)F)cc2)c1COc1ccc(-c2cncnc2)nn1 [Example 22] | > 2.17 h | -17.3% | 0.5 nM |
| Cc1ncn(-c2ccc(OCc3c(C)nnn3-c3ccc(C(F)F)cc3)nn2)n1 [Example 33] | > 2.17 h | -22% | 11.2 nM |
| COc1ncc(-c2ccc(OCc3c(C)nnn3-c3ccc(C(F)F)cc3)nn2)cn1 [Example 3] |  | -44.3% | 13.5 nM |
| Cc1nnn(-c2ccc(C(F)F)cc2)c1COc1ccc(-n2cnc(CO)c2)nn1 [Example 38, {1-[6-({1-[4-(difluoromethyl)phenyl]-4-methyl-1H-1,2,3-triazol-5-yl}methoxy)pyridazin-3-yl]-1H-imidazol-4-yl}methanol] | > 2.17 h | -23% | 1.7 nM |
| Cc1nnn(-c2ccc(C(F)F)cc2)c1COc1ccc(-c2cnn(C)c2)nn1 [Example 5] | > 2.17 h | -37.7% | 5.8 nM |
| Cc1nnn(-c2ccc(C(F)F)cc2)c1COc1ccc(-c2cncc(-n3ccnc3)c2)nn1 [Example 8] | 1.22 h | -19.5% | 17 nM |
| Cc1nnn(-c2ccc(C(F)F)cc2)c1COc1ccc(-n2cnc(C(N)=O)c2)nn1 [Example 27, 1-[6-({1-[4-(difluoromethyl)phenyl]-4-methyl-1H-1,2,3-triazol-5-yl}methoxy)pyridazin-3-yl]-1H-imidazole-4-carboxamide] | > 2.17 h | -35.2% | 0.4 nM |
